Laboratory results from US11793845B2, “Composition for ameliorating peripheral sensory neuropathy” (KINKI UNIVERSITY, priority 2016, dated 2023).

Legend:
[1] = system: Peripheral Sensory Neuropathy Induced by Bortezomib in Mice; experiment: cold plate test, bortezomib-induced peripheral sensory neuropathy; type: in vivo; conditions: duloxetine 30 mg/kg daily
Experimental: The effect of the Lentinus edodes mycelium extract on the paresthesia to cold stimulation was tested by performing the cold plate test. The mice in the three groups in the above (1) were put on a cold plate set to 10° C. and a response time for avoidance (a latency) was measured. The shorter latency means that the mouse avoids the cold stimulation of the cold plate more.
(§1) In the present test, the mice were divided into three groups by a difference in test objects. As in Example 1, male Balb/c mice of 6 to 7 weeks old were used. The mice were divided into a total of three groups, a control group, a bortezomib administration group, and a bortezomib and Lentinus edodes mycelium extract administration group (bortezomib+Lentinus edodes mycelium extract administration group).
(§2) Bortezomib was administered to each mouse once a day at a dose of 1 mg/kg. Further, the Lentinus edodes mycelium extract was administered to each mouse once a day at a dose of 2 g/kg.
Evaluation was performed in the same manner as in the test with oxaliplatin in Example 1. Referring to FIG. 8, the horizontal axis indicates the elapsed time after administration (days) and the vertical axis indicates the avoidance response time (seconds). Open circles with a solid line represent the control group. Filled circles with a solid line represent the group in which only bortezomib was administered. Open squares with a dash line represent the group in which bortezomib and the Lentinus edodes mycelium extract were administered at the same time (bortezomib+Lentinus edodes mycelium extract administration groups). When the difference with the control group was determined to be significant using a significance level of 5%, the data were marked by “*”.
(§3) In the present test, the mice were divided into six groups by a difference in test objects. As in Example 1, male Balb/c mice of 6 to 7 weeks old were used. […]

[2] = system: Peripheral Sensory Neuropathy Induced by Bortezomib in Mice; experiment: von Frey test, bortezomib-induced peripheral sensory neuropathy; type: in vivo; conditions: duloxetine 30 mg/kg daily
Description: The mice in the three groups in the above (1) were put in a cage and a filament having a strength of 0.16 g was pressed on the plantar surface of the leg to measure the number of times (a score) of avoidance response.
as §1, §2
Further, the number of times of administration was set to once a week (on Day 0, Day 7, and Day 14) for bortezomib and daily (from Day 0 to Day 15) for the Lentinus edodes mycelium extract in both the von Frey test and the cold plate test below.
Evaluation was performed in the same manner as in the test with oxaliplatin in Example 1. Referring to FIG. 7, the horizontal axis indicates an elapsed time after administration (days) and the vertical axis indicates the avoidance response (scores). Open circles with a solid line represent the control group. Filled circles with a solid line represent the group in which only bortezomib was administered. Open squares with a dash line represent the group in which bortezomib and the Lentinus edodes mycelium extract were administered at the same time (bortezomib+Lentinus edodes mycelium extract administration group). When the difference with the control group was determined to be significant using a significance level of 5%, the data were marked by “*”.
as §3

SMILES: CNCC[C@H](Oc1cccc2ccccc12)c1cccs1 [duloxetine]
- latency compared with bortezomib administration group, cold plate test ([1]; 3-day delayed after bortezomib): almost the same as that in the bortezomib administration group
- latency, cold plate test ([1]; 6-day delayed after bortezomib): same tendency as that in the duloxetine 3-day delayed administration group
- avoidance score compared with bortezomib administration group, von Frey test ([2]; 3-day delayed after bortezomib): almost the same score as that in the bortezomib administration group
- avoidance score, von Frey test ([2]; 6-day delayed after bortezomib): same tendency as that in the duloxetine 3-day delayed administration group
